Legend:
winter barley = test: Test E winter barley; type: in vivo, Hordeum vulgare; settings: Preemergence
wheat = test: Test B pre/postemergence wheat; type: in vivo, Triticum aestivum
Summary of the method: (§1)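 Herbicidal effect was estimated by eye on a ten-point control scale after plants spent twelve to sixteen days in a greenhouse following soil or foliar treatment. Foliar sprays targeted plants at one to four leaves; all doses were formulated in a non-phytotoxic solvent with surfactant.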

winter wheat [1] = test: Test E winter wheat; type: in vivo, Triticum aestivum; settings: Preemergence
blackgrass = test: Test E blackgrass; type: in vivo, Alopecurus myosuroides; settings: Preemergence
winter wheat [2] = test: Test E winter wheat; type: in vivo, Triticum aestivum; settings: Postemergence
Summary of the method: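 Postemergence: spray at 1–4 leaf stage, soil 60:40 sandy loam:potting mix; solvent + surfactant formulation; greenhouse 21–28 d; visual injury vs untreated controls.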

green foxtail = test: Test E green foxtail; type: in vivo, Setaria viridis; settings: Preemergence
Italian ryegrass = test: Test E Italian ryegrass; type: in vivo, Lolium multiflorum; settings: Preemergence
bamyardgrass = test: Test B flood test barnyardgrass; type: in vivo, Echinochloa crus-galli
Summary of the method: (§2)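 Each value is a visual injury score relative to controls, with 10 meaning complete control and 0 no effect. Evaluation took place twelve to sixteen days after the 2-leaf-stage plants were treated and kept in the greenhouse.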

wild oat = test: Test E wild oat; type: in vivo, Avena fatua; settings: Preemergence
bedstraw = test: Test B pre/postemergence bedstraw; type: in vivo, Galium aparine
Summary of the method: as §1

smallflower flatsedge = test: Test B flood test smallflower flatsedge; type: in vivo, Cyperus difformis
Summary of the method: as §2

[3] = Rate 125 g/ha, 0 to 100 scale (0 no effect, 100 complete control)
[4] = Rate 500 g/ha, 0 to 100 scale (0 no effect, 100 complete control)
[5] = Rate 1000 g/ha, 0 to 100 scale, 0 no effect, 100 complete control
[6] = Preemergence, Rate 250 g/ha, scale of 0 to 10 where 0 is no effect and 10 is complete control
[7] = Preemergence, Rate 500 g/ha, scale of 0 to 10 where 0 is no effect and 10 is complete control
[8] = Rate 62 g/ha, Postemergence, scale 0 to 10 (0 no effect, 10 complete control)
[9] = Rate 125 g/ha, Postemergence, scale of 0 to 10 where 0 is no effect and 10 is complete control
[10] = Rate 125 g/ha, Preemergence, scale of 0 to 10 where 0 is no effect and 10 is complete control
[11] = Rate 250 g/ha, Postemergence, scale of 0 to 10 where 0 is no effect and 10 is complete control
[12] = Rate 500 g/ha, Postemergence, scale 0 to 10, 0 no effect, 10 complete control
[13] = Rate 1000 g/ha, 0 to 100 scale where 0 is no effect and 100 is complete control
[14] = Rate 500 g/ha, 0 to 100 scale, 0 is no effect, 100 is complete control
[15] = Rate 62 g/ha, headed Pre-emergence (flood test species), scale 0 to 10 (0 no effect, 10 complete control)
[16] = Rate 125 g/ha, Pre-emergence, flood test species, scale 0 to 10 where 0 is no effect and 10 is complete control
[17] = Rate 250 g/ha, Pre-emergence, flood-test species, scale 0 to 10, 0 is no effect, 10 is complete control
[18] = Rate 500 g/ha, Pre-emergence, flood test species, scale 0 to 10 (0 no effect, 10 complete control)
[19] = Postemergence (flood test), Rate 125 g/ha, scale 0 to 10, 0 is no effect, 10 is complete control
[20] = Rate 62 g/ha, Postemergence (flood test species), scale of 0 to 10 where 0 is no effect and 10 is complete control
[21] = Rate 62 g/ha, flood test species, Pre-emergence, visual evaluation after twelve to sixteen days
[22] = Rate 500 g/ha, listed under Postemergence (flood test species), scale 0 to 10, 0 no effect, 10 complete control
[23] = flood test species, listed under Postemergence, Rate 250 g/ha, scale 0 to 10, 0 is no effect, 10 is complete control

CC(C)N(C(=O)n1oc(=O)n(CC(C)(C)C)c1=O)c1ccc(F)cc1F [Compound 277]
2: Barnyardgrass plant response rating (bamyardgrass; [15]) | Barnyardgrass plant response rating (bamyardgrass; [16]) | Plant response rating, Bedstraw (bedstraw; [7])
70: Plant response rating, Blackgrass (blackgrass; [4]) | Plant response rating, Wild oat (wild oat; [5])
65: Plant response rating, Barley (winter) (winter barley; [4]) | Plant response rating, I. Ryegrass (Italian ryegrass; [3]) | Plant response rating, Wild oat (wild oat; [4])
0: Wheat plant response rating (wheat; [6]) | Wheat plant response rating (wheat; [8]) | Wheat plant response rating (wheat; [9]) | Wheat plant response rating (wheat; [10]) | Plant response rating, Wheat (wheat; [11]) | Wheat plant response rating (wheat; [12]) | Plant response rating, Wheat (winter) (winter wheat [2]; Rate 125 g/ha, 0 to 100 scale, 0 is no effect, 100 is complete control) | Wheat (winter) plant response rating (winter wheat [2]; Rate 250 g/ha, 0 to 100 scale where 0 is no effect and 100 is complete control) | Plant response rating, Wheat (winter) (winter wheat [2]; [14]) | Bedstraw plant response rating (bedstraw; [6]) | Bedstraw plant response rating (bedstraw; [10]) | S. Flatsedge plant response rating (smallflower flatsedge; [15]) | S. Flatsedge plant response rating (smallflower flatsedge; [16]) | S. Flatsedge plant response rating (smallflower flatsedge; [17])
75: I. Ryegrass plant response rating (0 to 100 scale) (Italian ryegrass; Rate 250 g/ha)
95: Plant response rating, Green foxtail (green foxtail; [3]) | Plant response rating, I. Ryegrass (Italian ryegrass; [4])
4: Plant response rating, Wheat (wheat; [7])
30: Plant response rating, Barley (winter) (winter barley; [3]) | Plant response rating, Wheat (winter) (winter wheat [1]; [3])
8: Plant response rating, Bedstraw (bedstraw; [11]) | Bedstraw plant response rating (bedstraw; [12])
100: Blackgrass plant response rating (0 to 100 scale) (blackgrass; Rate 250 g/ha) | Plant response rating, Blackgrass (blackgrass; [5]) | Green foxtail plant response rating (0 to 100 scale) (green foxtail; Rate 250 g/ha) | Plant response rating, Green foxtail (green foxtail; [4]) | Plant response rating, Green foxtail (green foxtail; [5]) | Plant response rating, I. Ryegrass (Italian ryegrass; [5])
20: Wheat (winter) plant response rating (0 to 100 scale) (winter wheat [1]; Rate 250 g/ha)
60: Plant response rating, Blackgrass (blackgrass; [3]) | Wild oat plant response rating (0 to 100 scale) (wild oat; Rate 250 g/ha)
1: Barnyardgrass plant response rating (bamyardgrass; [17])
10: Plant response rating, Wheat (winter) (winter wheat [1]; [4]) | Plant response rating, Wheat (winter) (winter wheat [2]; [13])
9: Barnyardgrass plant response rating (bamyardgrass; [18])
50: Barley (winter) plant response rating (0 to 100 scale) (winter barley; Rate 250 g/ha) | Plant response rating, Barley (winter) (winter barley; [5]) | Plant response rating, Wheat (winter) (winter wheat [1]; [5]) | Plant response rating, Wild oat (wild oat; [3])
6: Bedstraw plant response rating (bedstraw; [9])
5: Bedstraw plant response rating (bedstraw; [8]) | S. Flatsedge plant response rating (smallflower flatsedge; [18])

CC1CC1n1c(=O)on(C(=O)N(c2ccc(Cl)cc2)C(C)C)c1=O (centres unmarked) [Compound 369]
50: Plant response rating, Barley (winter) (winter barley; [4]) | Plant response rating, Green foxtail (green foxtail; Rate 250 g/ha, 0 to 100 scale) | Plant response rating, I. Ryegrass (Italian ryegrass; Rate 250 g/ha, 0 to 100 scale)
75: Plant response rating, Wild oat (wild oat; [5])
60: Plant response rating, Barley (winter) (winter barley; [5]) | Plant response rating, Wheat (winter) (winter wheat [1]; Rate 250 g/ha, 0 to 100 scale) | Plant response rating, Wheat (winter) (winter wheat [2]; Rate 250 g/ha, 0 to 100 scale, 0 is no effect, 100 is complete control)
0: Plant response rating, Wheat (wheat; Postemergence, Rate 125 g/ha, scale 0 to 10, 0 is no effect, 10 is complete control) | Plant response rating, Wheat (wheat; Postemergence, Rate 250 g/ha, scale 0 to 10, 0 is no effect, 10 is complete control) | Plant response rating, Wheat (wheat; Preemergence, Rate 62 g/ha, scale 0 to 10 (0 no effect, 10 complete control)) | Wheat plant response rating (0 to 10 scale) (wheat; Preemergence, Rate 125 g/ha) | Wheat plant response rating (wheat; [6]) | Wheat plant response rating (wheat; [7]) | Wheat plant response rating (wheat; Rate 62 g/ha, Postemergence, scale of 0 to 10 where 0 is no effect and 10 is complete control) | Plant response rating, Barnyardgrass (bamyardgrass; [19]) | Barnyardgrass plant response rating (bamyardgrass; [20]) | Plant response rating, Barnyardgrass (0 to 10 scale, 0 is no effect, 10 is complete control) (bamyardgrass; [21]) | Barnyardgrass plant response rating (bamyardgrass; [16]) | Barnyardgrass plant response rating (bamyardgrass; [17]) | Barnyardgrass plant response rating (bamyardgrass; [18]) | Plant response rating, Barnyardgrass (bamyardgrass; [23]) | S. Flatsedge plant response rating (smallflower flatsedge; [20]) | Plant response rating, S. Flatsedge (0 to 10 scale, 0 is no effect, 10 is complete control) (smallflower flatsedge; [21]) | S. Flatsedge plant response rating (smallflower flatsedge; [16]) | S. Flatsedge plant response rating (smallflower flatsedge; [17]) | S. Flatsedge plant response rating (smallflower flatsedge; [18])
70: Plant response rating, Barley (winter) (winter barley; Rate 250 g/ha, 0 to 100 scale, 0 no effect, 100 complete control) | Plant response rating, Wheat (winter) (winter wheat [1]; [5]) | Plant response rating, Blackgrass (blackgrass; [4]) | Plant response rating, Wheat (winter) (winter wheat [2]; [13]) | Plant response rating, Wheat (winter) (winter wheat [2]; [14]) | Plant response rating, I. Ryegrass (Italian ryegrass; [5]) | Plant response rating, Wild oat (wild oat; [4])
2: Plant response rating, Barnyardgrass (bamyardgrass; [22]) | Plant response rating, S. Flatsedge (smallflower flatsedge; [19]) | Plant response rating, S. Flatsedge (smallflower flatsedge; [23])
4: Plant response rating, Wheat (wheat; [12]) | Plant response rating, S. Flatsedge (smallflower flatsedge; [22])
85: Plant response rating, Blackgrass (blackgrass; Rate 250 g/ha, 0 to 100 scale) | Plant response rating, Green foxtail (green foxtail; [4])
55: Plant response rating, Wheat (winter) (winter wheat [1]; [4])
100: Plant response rating, Blackgrass (blackgrass; [5]) | Plant response rating, Green foxtail (green foxtail; [5])
65: Plant response rating, I. Ryegrass (Italian ryegrass; [4]) | Plant response rating, Wild oat (wild oat; Rate 250 g/ha, 0 to 100 scale)

— patent US6737383B1, “Herbicidal oxadiazolidines” (priority 1999, dated 2004)
